For the test, the target named is T1, Lp-PLA2 in human plasma (Homo sapiens, UniProt Q13093).
T1 construct: from tissue; host or cells: pooled human plasma
T1 sequence (Q13093 22-441): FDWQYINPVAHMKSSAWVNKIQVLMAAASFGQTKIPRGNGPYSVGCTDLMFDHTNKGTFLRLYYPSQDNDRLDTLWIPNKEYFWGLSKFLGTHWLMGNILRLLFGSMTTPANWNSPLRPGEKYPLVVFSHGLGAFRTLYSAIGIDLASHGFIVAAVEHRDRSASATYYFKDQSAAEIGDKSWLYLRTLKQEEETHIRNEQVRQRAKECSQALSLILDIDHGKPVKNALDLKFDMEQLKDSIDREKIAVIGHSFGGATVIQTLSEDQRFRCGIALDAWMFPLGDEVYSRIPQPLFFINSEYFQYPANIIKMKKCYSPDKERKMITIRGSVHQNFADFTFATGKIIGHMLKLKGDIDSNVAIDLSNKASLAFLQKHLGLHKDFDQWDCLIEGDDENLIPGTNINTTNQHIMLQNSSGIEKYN
Description: Lp-PLA2 human plasma assay (Thio-PAF assay). The class given is biochemical. To be noted: pooled human plasma; read-out: pIC50 values in the thio-PAF assay (converted). The text has this:
The human plasma assay utilizes a thioester analog of PAF (phosphatidylcholine), where hydrolysis yields to the formation of a phospholipid containing a free thiol group. The amount of thiol is quantitated continuously by reacting with CPM (7-diethylamino-3-(4′-maleimidylphenyl)-4-methylcoumarin), a maleimide which increases in fluoresence after Michael addition of thiols. This assay may detect the activity of Lp-PLA2 in human plasma, as determined by specific inhibition by Lp-PLA2 inhibitors.
The thio-PAF assay was run as a quenched 15 μL assay. Compounds source plate was prepared by making 1:3 (by volume) serial dilution of the compounds into pure DMSO on 384-well microplate. 0.01 μL of compounds on compound source plate were transferred to 384 well Greiner 784076 (black) low-volume plates by ECHO liquid dispenser. 8 μL pooled human plasma, which was previously aliquoted and frozen, was added. Plates were centrifuged for 10 sec at 500 rpm. After 30 minutes preincubation, 2 μL of substrate solution comprising 2.5 mM 2-thio-PAF [from ethanol stock], 32 μM CPM [from a DMSO stock] and 3.2 mM NEM (N-ethylmaleimide) [made fresh daily in DMSO] in assay buffer of 50 mM HEPES, pH 7.4, 150 mM NaCl, 1 mM CHAPS was added to 384 well Greiner 784076 (black) low-volume plates by BRAVO liquid handling station. After 2 mins, reaction was quenched with 5 μL of 5% aqueous trifluoroacetic acid (TFA). Plates were covered to protect from light and incubated for 40 min at room temperature. Plates were read at ex: 380/em: 485 using-Envision microplate reader. pIC50 data, curve and QC analysis was conducted by using XLFit module in Excel.

Molecules are shown by their SMILES.

Here are results for 30 compounds from patent publication US20150344485A1, “BICYCLIC PYRIMIDONE COMPOUNDS AS INHIBITORS OF LP-PLA2” (GLAXOSMITHKLINE INTELLECTUAL PROPERTY DEVELOPMENT LIMITED, priority 2013, published 2015).

With `CC1CCn2c(cc(OCc3ccc(F)cc3)nc2=O)N1C` (stereo not drawn) [E9, 8-((4-fluorobenzyl)oxy)-1,2-dimethyl-3,4-dihydro-1H-pyrimido[1,6-a]pyrimidin-6(2H)-one], the IC50 was at most 100 nM. Turning to `CC1CCn2c(cc(OCc3cccc(C#N)c3)nc2=O)N1C` (stereo not drawn) [E10, 3-(((1,2-dimethyl-6-oxo-2,3,4,6-tetrahydro-1H-pyrimido[1,6-a]pyrimidin-8-yl)oxy)methyl)benzonitrile], the IC50 is at most 100 nM. Turning to `CC1CCn2c(cc(OCc3cccc(F)c3)nc2=O)N1C` (stereo not drawn) [E12, 8-((3-fluorobenzyl)oxy)-1,2-dimethyl-3,4-dihydro-1H-pyrimido[1,6-a]pyrimidin-6(2H)-one], the IC50 is at most 100 nM. With `C[C@@H]1CCn2c(cc(OCc3cc(F)c(F)c(F)c3)nc2=O)N1C` [E16, (R)-1,2-dimethyl-8-((3,4,5-trifluorobenzyl)oxy)-3,4-dihydro-1H-pyrimido[1,6-a]pyrimidin-6(2H)-one] the figure was at most 100 nM; with `C[C@@H]1CCn2c(cc(OCc3cccc(F)c3F)nc2=O)N1C` [E18, (R)-8-((2,3-difluorobenzyl)oxy)-1,2-dimethyl-3,4-dihydro-1H-pyrimido[1,6-a]pyrimidin-6(2H)-one], at most 100 nM. With `[2H]C([2H])(Oc1cc2n(c(=O)n1)CC[C@@H](C)N2C)c1cccc(F)c1F` [E19, (R)-8-((2,3-difluorophenyl)dideuteromethoxy)-1,2-dimethyl-3,4-dihydro-1H-pyrimido[1,6-a]pyrimidin-6(2H)-one] the figure was at most 100 nM; with `C[C@@H]1CCn2c(cc(OCc3ccc(F)cc3)nc2=O)N1C` [E20, (R)-8-((4-fluorobenzyl)oxy)-1,2-dimethyl-3,4-dihydro-1H-pyrimido[1,6-a]pyrimidin-6(2H)-one], at most 100 nM; with `C[C@@H]1CCn2c(cc(OCc3ccc(F)cc3)nc2=O)N1` [E27, (R)-8-((4-fluorobenzyl)oxy)-2-methyl-3,4-dihydro-1H-pyrimido[1,6-a]pyrimidin-6(2H)-one], at most 100 nM. As to `[2H]C([2H])(Oc1cc2n(c(=O)n1)CC[C@H](C)N2C)c1cc(F)c(F)c(F)c1` [E36, (S)-8-(dideutero(3,4,5-trifluorophenyl)methoxy)-1,2-dimethyl-3,4-dihydro-1H-pyrimido[1,6-a]pyrimidin-6(2H)-one], the IC50 was at most 100 nM. With `C[C@H]1CCn2c(cc(OCc3ccc(F)c(F)c3)nc2=O)N1` [E40, (S)-8-((3,4-difluorobenzyl)oxy)-2-methyl-3,4-dihydro-1H-pyrimido[1,6-a]pyrimidin-6(2H)-one] the figure was at most 100 nM; with `C[C@H]1CCn2c(cc(OCc3cc(F)c(F)cc3F)nc2=O)N1C` [E42, (S)-1,2-dimethyl-8-((2,4,5-trifluorobenzyl)oxy)-3,4-dihydro-1H-pyrimido[1,6-a]pyrimidin-6(2H)-one], at most 100 nM; with `C[C@H]1CCn2c(cc(OCc3cc(F)c(F)c(F)c3)nc2=O)N1` [E45, (S)-2-methyl-8-((3,4,5-trifluorobenzyl)oxy)-3,4-dihydro-1H-pyrimido[1,6-a]pyrimidin-6(2H)-one], at most 10 nM.

Regarding `[2H]C([2H])(Oc1cc2n(c(=O)n1)CC[C@H](C)N2C)c1cc(F)cc(F)c1` [E49, (S)-8-((3,5-difluorophenyl)dideuteromethoxy)-1,2-dimethyl-3,4-dihydro-1H-pyrimido[1,6-a]pyrimidin-6(2H)-one], the IC50 is at most 100 nM. With `[2H]C([2H])(Oc1cc2n(c(=O)n1)CC[C@@H](C)N2C)c1cc(F)cc(F)c1` [E50, (R)-8-((3,5-difluorophenyl)dideuteromethoxy)-1,2-dimethyl-3,4-dihydro-1H-pyrimido[1,6-a]pyrimidin-6(2H)-one] the figure was at most 100 nM; with `CCN1c2cc(OCc3cc(F)c(F)cc3F)nc(=O)n2CC[C@@H]1C` [E52, (S)-1-ethyl-2-methyl-8-((2,4,5-trifluorobenzyl)oxy)-3,4-dihydro-1H-pyrimido[1,6-a]pyrimidin-6(2H)-one], at most 100 nM. With `CCN1c2cc(OCc3cccc(F)c3F)nc(=O)n2CC[C@@H]1C` [E53, (S)-8-((2,3-difluorobenzyl)oxy)-1-ethyl-2-methyl-3,4-dihydro-1H-pyrimido[1,6-a]pyrimidin-6(2H)-one] the figure was at most 100 nM; with `[2H]C([2H])(Oc1cc2n(c(=O)n1)CCC(C)(C)N2C)c1cc(F)c(F)c(F)c1` [E55, 8-(dideutero(3,4,5-trifluorophenyl)methoxy)-1,2,2-trimethyl-3,4-dihydro-1H-pyrimido[1,6-a]pyrimidin-6(2H)-one], at most 100 nM; with `C[C@H]1CCn2c(cc(OCc3cc(F)c(Oc4ccc(Cl)c(F)c4)c(F)c3)nc2=O)N1C` [E58, (S)-8-((4-(4-chloro-3-fluorophenoxy)-3,5-difluorobenzyl)oxy)-1,2-dimethyl-3,4-dihydro-1H-pyrimido[1,6-a]pyrimidin-6(2H)-one], at most 10 nM. In the case of `C[C@H]1CCn2c(cc(OCc3cc(F)c(Oc4cccc(Cl)c4)c(F)c3)nc2=O)N1C` [E59, (S)-8-((4-(3-chlorophenoxy)-3,5-difluorobenzyl)oxy)-1,2-dimethyl-3,4-dihydro-1H-pyrimido[1,6-a]pyrimidin-6(2H)-one], the IC50 is at most 100 nM.

Turning to `C[C@H]1CCn2c(cc(OCc3ccc(Oc4ccc(C(F)(F)F)cc4)c(C#N)c3)nc2=O)N1C` [E61, (S)-5-(((1,2-dimethyl-6-oxo-2,3,4,6-tetrahydro-1H-pyrimido[1,6-a]pyrimidin-8-yl)oxy)methyl)-2-(4-(trifluoromethyl)phenoxy)benzonitrile], the IC50 is at most 10 nM. With `C[C@@H]1CCn2c(cc(OCc3cc(F)c(Oc4ccc(Cl)c(F)c4)c(F)c3)nc2=O)N1C` [E63, (R)-8-((4-(4-chloro-3-fluorophenoxy)-3,5-difluorobenzyl)oxy)-1,2-dimethyl-3,4-dihydro-1H-pyrimido[1,6-a]pyrimidin-6(2H)-one] the figure was at most 10 nM. Take `C[C@@H]1CCn2c(cc(OCc3cc(F)c(Oc4cccc(Cl)c4)c(F)c3)nc2=O)N1C` [E64, (R)-8-((4-(3-chlorophenoxy)-3,5-difluorobenzyl)oxy)-1,2-dimethyl-3,4-dihydro-1H-pyrimido[1,6-a]pyrimidin-6(2H)-one]: the IC50 was at most 10 nM. With `C[C@H]1CCn2c(cc(OCc3ccc(Oc4ccc(Cl)c(F)c4)c(C#N)c3)nc2=O)N1C` [E66, (S)-2-(4-chloro-3-fluorophenoxy)-5-(((1,2-dimethyl-6-oxo-2,3,4,6-tetrahydro-1H-pyrimido[1,6-a]pyrimidin-8-yl)oxy)methyl)benzonitrile], the IC50 was at most 10 nM. `CN1c2cc(OCc3cccc(F)c3F)nc(=O)n2CCC1(C)C` [E72, 8-((2,3-difluorobenzyl)oxy)-1,2,2-trimethyl-3,4-dihydro-1H-pyrimido[1,6-a]pyrimidin-6(2H)-one]: the IC50 is at most 100 nM. For `CN1c2cc(OCc3cc(F)cc(F)c3)nc(=O)n2CCC1(C)C` [E74, 8-((3,5-difluorobenzyl)oxy)-1,2,2-trimethyl-3,4-dihydro-1H-pyrimido[1,6-a]pyrimidin-6(2H)-one], the IC50 is at most 100 nM.

`C[C@@H]1CCn2c(cc(OCc3cccc(C#N)c3)nc2=O)N1C` [E127, (R)-3-(((1,2-dimethyl-6-oxo-2,3,4,6-tetrahydro-1H-pyrimido[1,6-a]pyrimidin-8-yl)oxy)methyl)benzonitrile]: the IC50 is at most 100 nM. With `C[C@H]1CCn2c(cc(OCc3cccc(C#N)c3)nc2=O)N1C` [E128, (S)-3-(((1,2-dimethyl-6-oxo-2,3,4,6-tetrahydro-1H-pyrimido[1,6-a]pyrimidin-8-yl)oxy)methyl)benzonitrile] the figure was at most 100 nM; with `C[C@@H]1CCn2c(cc(OCc3cccc(F)c3)nc2=O)N1C` [E130, (R)-8-((3-fluorobenzyl)oxy)-1,2-dimethyl-3,4-dihydro-1H-pyrimido[1,6-a]pyrimidin-6(2H)-one], at most 100 nM. With `CN1c2cc(OCc3cccc(F)c3)nc(=O)n2CCC1(C)C` [E134, 8-((3-fluorobenzyl)oxy)-1,2,2-trimethyl-3,4-dihydro-1H-pyrimido[1,6-a]pyrimidin-6(2H)-one] the figure was at most 100 nM; with `CC(C)N1c2cc(OCc3cccc(F)c3F)nc(=O)n2CC[C@@H]1C` [E139, (S)-8-((2,3-difluorobenzyl)oxy)-1-isopropyl-2-methyl-3,4-dihydro-1H-pyrimido[1,6-a]pyrimidin-6(2H)-one], at most 100 nM.
